Columns and labels:
wild oat [1] = assay: Test Example 5: herbicidal effect by foliage application, plastic box (Table 20, symbol I); assay type: in vivo, wild oat (Avena fatua); settings: foliage application, 320 g/ha, evaluated three weeks after application
Method in brief: (§1)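 Foliar spray test: emulsion formulation diluted in water to a set application rate, sprayed onto 14-day-old plants raised in diluvial soil at 25° C to 30° C under glass. Both herbicidal effect and crop effect rated visually three weeks later.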

blackgrass [2] = assay: Test Example 4: herbicidal effect by soil treatment (Table 19, symbol J); assay type: in vivo, blackgrass (Alopecurus myosuroides); settings: 320 g/ha
Method in brief: (§2)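 Step 1: sow seeds in sterilized diluvial soil, cover ~1.5 cm. Step 2: spray diluted emulsion onto soil surface at predetermined rate. Step 3: greenhouse, 25–30° C, three weeks. Step 4: grade effect on each plant by earlier criteria.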

persian speedwell [3] = assay: Test Example 4: herbicidal effect by soil treatment (Table 19, symbol R); assay type: in vivo, Persian speedwell (Veronica persica); settings: 320 g/ha
Method in brief: as §2

lambsquarters [4] = assay: Test Example 5: herbicidal effect by foliage application, plastic box (Table 20, symbol O); assay type: in vivo, lambsquarters (Chenopodium album); settings: foliage application, 320 g/ha, evaluated three weeks after application
Method in brief: as §1

wild oat [5] = assay: Test Example 4: herbicidal effect by soil treatment (Table 19, symbol I); assay type: in vivo, wild oat (Avena fatua); settings: 320 g/ha
Method in brief: as §2

barnyard grass [6] = assay: Test Example 4: herbicidal effect by soil treatment (Table 19, symbol H); assay type: in vivo, barnyard grass (Echinochloa crus-galli); settings: 320 g/ha
Method in brief: as §2

barnyard grass [7] = assay: Test Example 5: herbicidal effect by foliage application, plastic box (Table 20, symbol H); assay type: in vivo, barnyard grass (Echinochloa crus-galli); settings: foliage application, 320 g/ha, evaluated three weeks after application
Method in brief: as §1

chickweed [8] = assay: Test Example 4: herbicidal effect by soil treatment (Table 19, symbol P); assay type: in vivo, common chickweed (Stellaria media); settings: 320 g/ha
Method in brief: as §2

lambsquarters [9] = assay: Test Example 4: herbicidal effect by soil treatment (Table 19, symbol O); assay type: in vivo, lambsquarters (Chenopodium album); settings: 320 g/ha
Method in brief: as §2

blackgrass [10] = assay: Test Example 5: herbicidal effect by foliage application, plastic box (Table 20, symbol J); assay type: in vivo, blackgrass (Alopecurus myosuroides); settings: foliage application, 320 g/ha, evaluated three weeks after application
Method in brief: as §1

barnyard grass [11] = assay: Test Example 3: herbicidal effect by foliage application, Wagner pot (Table 18, symbol H); assay type: in vivo, barnyard grass (Echinochloa crus-galli); settings: 320 g/ha
Method in brief: (§3)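 Plants were sown in alluvial soil held under 0.1–0.5 cm standing water and grown 14 days in a greenhouse at 25–30 °C. An emulsifiable formulation, water-diluted to the set dose, was then sprayed onto the foliage, and effects were scored three weeks later using previously defined criteria.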

green foxtail [12] = assay: Test Example 4: herbicidal effect by soil treatment (Table 19, symbol G); assay type: in vivo, green foxtail (Setaria viridis); settings: 320 g/ha
Method in brief: as §2

windgrass [13] = assay: Test Example 4: herbicidal effect by soil treatment (Table 19, symbol L); assay type: in vivo, windgrass (Apera spica-venti); settings: 320 g/ha
Method in brief: as §2

redroot pigweed [14] = assay: Test Example 4: herbicidal effect by soil treatment (Table 19, symbol N); assay type: in vivo, redroot pigweed (Amaranthus retroflexus); settings: 320 g/ha
Method in brief: as §2

velvetleaf [15] = assay: Test Example 4: herbicidal effect by soil treatment (Table 19, symbol M); assay type: in vivo, velvetleaf (Abutilon theophrasti); settings: 320 g/ha
Method in brief: as §2

Chinese sprangletop = assay: Test Example 3: herbicidal effect by foliage application, Wagner pot (Table 18, symbol D); assay type: in vivo, chinese sprangletop (Leptochloa chinensis); settings: 320 g/ha
Method in brief: as §3

redroot pigweed [16] = assay: Test Example 5: herbicidal effect by foliage application, plastic box (Table 20, symbol N); assay type: in vivo, redroot pigweed (Amaranthus retroflexus); settings: foliage application, 320 g/ha, evaluated three weeks after application
Method in brief: as §1

chickweed [17] = assay: Test Example 5: herbicidal effect by foliage application, plastic box (Table 20, symbol P); assay type: in vivo, common chickweed (Stellaria media); settings: foliage application, 320 g/ha, evaluated three weeks after application
Method in brief: as §1

Italian ryegrass [18] = assay: Test Example 5: herbicidal effect by foliage application, plastic box (Table 20, symbol K); assay type: in vivo, Italian ryegrass (Lolium multiflorum); settings: foliage application, 320 g/ha, evaluated three weeks after application
Method in brief: as §1

windgrass [19] = assay: Test Example 5: herbicidal effect by foliage application, plastic box (Table 20, symbol L); assay type: in vivo, windgrass (Apera spica-venti); settings: foliage application, 320 g/ha, evaluated three weeks after application
Method in brief: as §1

Italian ryegrass [20] = assay: Test Example 4: herbicidal effect by soil treatment (Table 19, symbol K); assay type: in vivo, Italian ryegrass (Lolium multiflorum); settings: 320 g/ha
Method in brief: as §2

green foxtail [21] = assay: Test Example 5: herbicidal effect by foliage application, plastic box (Table 20, symbol G); assay type: in vivo, green foxtail (Setaria viridis); settings: foliage application, 320 g/ha, evaluated three weeks after application
Method in brief: as §1

rice flat sedge = assay: Test Example 3: herbicidal effect by foliage application, Wagner pot (Table 18, symbol E); assay type: in vivo, rice flat sedge (Cyperus iria); settings: 320 g/ha
Method in brief: as §3

southern crabgrass [22] = assay: Test Example 4: herbicidal effect by soil treatment (Table 19, symbol F); assay type: in vivo, southern crabgrass (Digitaria ciliaris); settings: 320 g/ha
Method in brief: as §2

velvetleaf [23] = assay: Test Example 5: herbicidal effect by foliage application, plastic box (Table 20, symbol M); assay type: in vivo, velvetleaf (Abutilon theophrasti); settings: foliage application, 320 g/ha, evaluated three weeks after application
Method in brief: as §1

southern crabgrass [24] = assay: Test Example 5: herbicidal effect by foliage application, plastic box (Table 20, symbol F); assay type: in vivo, southern crabgrass (Digitaria ciliaris); settings: foliage application, 320 g/ha, evaluated three weeks after application
Method in brief: as §1

persian speedwell [25] = assay: Test Example 5: herbicidal effect by foliage application, plastic box (Table 20, symbol R); assay type: in vivo, Persian speedwell (Veronica persica); settings: foliage application, 320 g/ha, evaluated three weeks after application
Method in brief: as §1

false cleavers = assay: Test Example 4: herbicidal effect by soil treatment (Table 19, symbol Q); assay type: in vivo, false cleavers (Galium spurium); settings: 320 g/ha
Method in brief: as §2

Cc1nn(C)c(=O)c(-c2c(-c3ccc(F)cc3)sc3ccc(Cl)cc23)c1O [2-097]
herbicidal effect on I: wild oat (wild oat [1]): 5 (Herbicidal rate of 90% or more (almost completely withered))
herbicidal effect rating, J: blackgrass (blackgrass [2]): 5 (Herbicidal rate of 90% or more (almost completely withered))
herbicidal effect rating, R: persian speedwell (persian speedwell [3]): 5 (Herbicidal rate of 90% or more (almost completely withered))
herbicidal effect on O: lambsquarters (lambsquarters [4]): 5 (Herbicidal rate of 90% or more (almost completely withered))
herbicidal effect rating, I: wild oat (wild oat [5]): 1 (Herbicidal rate of 5% or more and less than 20%)
herbicidal effect rating, H: barnyard grass (barnyard grass [6]): 3 (Herbicidal rate of 40% or more and less than 70%)
herbicidal effect on H: barnyard grass (barnyard grass [7]): 5 (Herbicidal rate of 90% or more (almost completely withered))
herbicidal effect rating, P: chickweed (chickweed [8]): 5 (Herbicidal rate of 90% or more (almost completely withered))
herbicidal effect rating, O: lambsquarters (lambsquarters [9]): 5 (Herbicidal rate of 90% or more (almost completely withered))
herbicidal effect on J: blackgrass (blackgrass [10]): 5 (Herbicidal rate of 90% or more (almost completely withered))
herbicidal effect on H (barnyard grass), rating 0-5 (barnyard grass [11]): 5 (Herbicidal rate of 90% or more (almost completely withered))
herbicidal effect rating, G: green foxtail (green foxtail [12]): 3 (Herbicidal rate of 40% or more and less than 70%)
herbicidal effect rating, L: windgrass (windgrass [13]): 5 (Herbicidal rate of 90% or more (almost completely withered))
herbicidal effect rating, N: redroot pigweed (redroot pigweed [14]): 5 (Herbicidal rate of 90% or more (almost completely withered))
herbicidal effect rating, M: velvetleaf (velvetleaf [15]): 3 (Herbicidal rate of 40% or more and less than 70%)
herbicidal effect on D (Chinese sprangletop), rating 0-5 (Chinese sprangletop): 3 (Herbicidal rate of 40% or more and less than 70%)
herbicidal effect on N: redroot pigweed (redroot pigweed [16]): 5 (Herbicidal rate of 90% or more (almost completely withered))
herbicidal effect on P: chickweed (chickweed [17]): 5 (Herbicidal rate of 90% or more (almost completely withered))
herbicidal effect on K: Italian ryegrass (Italian ryegrass [18]): 5 (Herbicidal rate of 90% or more (almost completely withered))
herbicidal effect on L: windgrass (windgrass [19]): 5 (Herbicidal rate of 90% or more (almost completely withered))
herbicidal effect rating, K: Italian ryegrass (Italian ryegrass [20]): 5 (Herbicidal rate of 90% or more (almost completely withered))
herbicidal effect on G: green foxtail (green foxtail [21]): 5 (Herbicidal rate of 90% or more (almost completely withered))
herbicidal effect on E (rice flat sedge), rating 0-5 (rice flat sedge): 4 (Herbicidal rate of 70% or more and less than 90%)
herbicidal effect rating, F: southern crabgrass (southern crabgrass [22]): 2 (Herbicidal rate of 20% or more and less than 40%)
herbicidal effect on M: velvetleaf (velvetleaf [23]): 5 (Herbicidal rate of 90% or more (almost completely withered))
herbicidal effect on F: southern crabgrass (southern crabgrass [24]): 5 (Herbicidal rate of 90% or more (almost completely withered))
herbicidal effect on R: persian speedwell (persian speedwell [25]): 5 (Herbicidal rate of 90% or more (almost completely withered))
herbicidal effect rating, Q: false cleavers (false cleavers): 4 (Herbicidal rate of 70% or more and less than 90%)
